A short description of data set [1]: Pharmacokinetic parameters following intravenous administration in rats. It is filed as in vivo, male Wistar rats. Conditions: intravenous administration of 0.3 mg/kg; for MRT / half-life: male, Wistar, rat, plasma; for half-life: terminal half life. The method, then: The pharmacokinetic parameters of the compounds of the formula (I) according to the invention are determined in male CD-1 mice, male Wistar rats and/or female beagles. The administration volume is 5 ml/kg for mice, 5 ml/kg for rats and 0.5 ml/kg for dogs. Intravenous administration is via a formulation of species-specific plasma/DMSO (99/1) in the case of mice and rats and via water/PEG400/ethanol (50/40/10 or 30/60/10) in the case of dogs. The removal of blood from rats is simplified by inserting a silicone catheter into the right Vena jugularis externa prior to substance administration. The surgical intervention takes place one day prior to the experiment with isofluran anesthesia and administration of an analgetic (atropine/rimadyl (3/1) 0.1 ml s.c.). Substance administration is as i.v. bolus in the case of mice, as i.v. bolus or via a 15-minute infusion in the case of rats and via a 15-minute infusion in the case of dogs. Removal of blood is after 0.033, 0.083, 0.17, 0.5, 1, 2, 3, 4, 6, 7 and 24 hours in the case of mice and, after a 15-minute infusion, after 0.083, 0.25, 0.28, 0.33, 0.42, 0.75, 1, 2, 3, 4, 6, 7 (or 8 in the case of Example 3) and 24 hours in the case of dogs and rats and after an i.v. bolus administration, after 0.033, 0.083, 0.17, 0.5, 1, 2, 3, 4, 6, 7 and 24 hours in the case of rats. For all species, oral administration of the dissolved substance via gavage is carried out based on a water/PEG400/ethanol formulation (50/40/10). Here, the removal of blood from rats and dogs is after 0.083, 0.17, 0.5, 0.75, 1, 2, 3, 4, 6, 7 and 24 hours. The blood is removed into heparinized tubes. The blood plasma is then obtained by centrifugation; if required, it can be stored at −20° C. until further processing.
An internal standard (ZK 228859) is added to the samples of the compounds of the formula (I) according to the invention, calibration samples and QCs, and the protein is precipitated using excess acetonitrile. After addition of an ammonium acetate buffer (0.01 M, pH 6.8) and subsequent vortexing, the mixture is centrifuged at 1000 g and the supernatant is examined by LC-MS/MS (API 4000, AB Sciex). Chromatographic separation is carried out on an Agilent 1100-HPLC. The injection volume is 10 μl. The separation column used is a Phenomenex Luna 5μ C8(2) 100A 50×2 mm, adjusted to a temperature of 40° C. A binary mobile phase gradient at 500 μl/min is used (A: 0.01M ammonium acetate buffer pH 6.8, B: 0.1% formic acid in acetonitrile): 0 min (90% A), 1 min (90% A), 3 min (10% A), 4 min (10% A), 4.50 min (90% A), 6 min (90% A). The temperature of the Turbo V ion source is 500° C. (Example 2), 400° C. (Example 3) or 450° C. (Example 6). The following MS instrument parameters are used: curtain gas 15 units (Examples 2 and 3) or 10 units (Example 6), ion spray voltage 4.8 kV, gas 1 45 units (Example 2) or 50 units (Examples 3 and 6), gas 2 35 units (Examples 2 and 6) or 40 units (Example 3), CAD gas 4 units (Examples 2 and 6) or 8 units (Example 3). The substances are quantified by peak heights or areas using extracted ion chromatograms of specific MRM experiments.
The plasma concentration/time plots determined are used to calculate the pharmacokinetic parameters such as AUC, Cmax, t112 (terminal half life), MRT (mean residence time) and CL (clearance), using the validated pharmacokinetic calculation program KinEx (Vers. 3).
Since the substance quantification is performed in plasma, it is necessary to determine the blood/plasma distribution of the substance in order to be able to adjust the pharmacokinetic parameters correspondingly. For this purpose, a defined amount of substance is incubated in heparinized whole blood of the species in question in a rocking roller mixer for 20 min. After centrifugation at 1000 g, the plasma concentration is measured (see above) and determined by calculating the quotient of the Cblood/Cplasma values.

Data set [2] has as its system rabbit aorta rings. As to the kind of experiment: Vasorelaxant effect in vitro (phenylephrine-contracted aorta rings). Conditions: Oryctolagus cuniculus, phenylephrine contraction, concentration reducing control contraction by 50%. The protocol:
Rabbits are stunned by a blow to the neck and exsanguinated. The aorta is removed, freed from adhering tissue and divided into rings of a width of 1.5 mm. The rings are placed individually under an initial tension in 5 ml organ baths with Krebs-Henseleit solution which is at 37° C., is gassed with carbogen and has the following composition (in each case mM): sodium chloride: 119; potassium chloride: 4.8; calcium chloride dihydrate: 1; magnesium sulphate heptahydrate: 1.4; potassium dihydrogenphosphate: 1.2; sodium bicarbonate: 25; glucose: 10. The contractile force is determined with Statham UC2 cells, amplified and digitalized using A/D transducers (DAS-1802 HC, Keithley Instruments Munich), and recorded in parallel on linear recorders. To produce a contraction, phenylephrine is added to the bath cumulatively in increasing concentration. After several control cycles, the substance to be investigated is added in each further run in increasing dosage in each case, and the height of the contraction achieved is compared with the height of the contraction reached in the last preceding run. This is used to calculate the concentration needed to reduce the magnitude of the control value by 50% (IC50 value). The standard administration volume is 5 μl; the DMSO content in the bath solution corresponds to 0.1%.

In data set [3] the target is T1, recombinant guanylate cyclase reporter cell line (Rattus norvegicus, UniProt P19686+P20595).
T1 construct: expressed in transfected cells; host or cells: recombinant reporter cell line
T1 sequence (P19686 1-690): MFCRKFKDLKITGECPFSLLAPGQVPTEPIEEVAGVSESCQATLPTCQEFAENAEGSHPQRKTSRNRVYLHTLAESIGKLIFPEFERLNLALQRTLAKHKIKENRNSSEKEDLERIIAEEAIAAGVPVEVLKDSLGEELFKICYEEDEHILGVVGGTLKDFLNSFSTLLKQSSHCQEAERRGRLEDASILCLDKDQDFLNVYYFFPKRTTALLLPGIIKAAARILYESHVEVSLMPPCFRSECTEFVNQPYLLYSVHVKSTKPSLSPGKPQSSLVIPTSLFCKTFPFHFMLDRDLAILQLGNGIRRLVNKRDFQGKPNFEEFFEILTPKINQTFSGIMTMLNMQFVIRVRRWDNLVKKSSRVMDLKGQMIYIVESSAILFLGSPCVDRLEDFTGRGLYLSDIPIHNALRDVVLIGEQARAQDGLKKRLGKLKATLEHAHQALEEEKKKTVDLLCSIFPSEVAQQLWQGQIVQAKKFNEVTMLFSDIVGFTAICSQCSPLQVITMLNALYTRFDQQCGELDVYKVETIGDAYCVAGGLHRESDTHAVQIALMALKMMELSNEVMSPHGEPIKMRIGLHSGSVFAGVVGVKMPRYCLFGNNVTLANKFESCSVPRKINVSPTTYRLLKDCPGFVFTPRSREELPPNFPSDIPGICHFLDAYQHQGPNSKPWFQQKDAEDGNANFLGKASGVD
T1 sequence (P20595 1-619): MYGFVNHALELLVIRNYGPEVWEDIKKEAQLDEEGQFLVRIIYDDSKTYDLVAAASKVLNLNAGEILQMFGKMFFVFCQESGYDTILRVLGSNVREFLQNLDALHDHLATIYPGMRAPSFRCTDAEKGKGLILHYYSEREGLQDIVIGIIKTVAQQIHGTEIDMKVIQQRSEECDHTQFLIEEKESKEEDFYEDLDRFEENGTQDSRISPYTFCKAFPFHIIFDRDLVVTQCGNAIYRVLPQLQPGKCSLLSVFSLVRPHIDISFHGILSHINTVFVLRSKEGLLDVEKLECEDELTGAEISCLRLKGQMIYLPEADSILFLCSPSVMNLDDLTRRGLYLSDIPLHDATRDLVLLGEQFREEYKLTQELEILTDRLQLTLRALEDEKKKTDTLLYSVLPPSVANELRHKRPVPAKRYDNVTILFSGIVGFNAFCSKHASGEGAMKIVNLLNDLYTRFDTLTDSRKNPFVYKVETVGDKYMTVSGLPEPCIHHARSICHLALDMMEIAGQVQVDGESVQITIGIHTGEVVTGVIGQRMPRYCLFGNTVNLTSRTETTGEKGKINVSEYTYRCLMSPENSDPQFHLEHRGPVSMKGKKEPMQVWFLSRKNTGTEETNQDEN
As to the kind of experiment: Effect on a recombinant guanylate cyclase reporter cell line. In kind it is cell-based. The protocol:
The cellular activity of the compounds according to the invention is determined using a recombinant guanylate cyclase reporter cell line, as described in F. Wunder et al., Anal. Biochem. 339, 104-112 (2005).

The values that follow come from patent publication US20140228366A1, “HETEROARYL-SUBSTITUTED PYRAZOLOPYRIDINES AND USE THEREOF AS SOLUBLE GUANYLATE CYCLASE STIMULATORS” (BAYER INTELLECTUAL PROPERTY GMBH, priority 2011, published 2014).

A word on the MRT: it is a mean duration of stay, worked out from the concentration-time curve. Usually half-life stands for the time in which the quantity being followed falls by half. High values mean slow decline, low ones rapid decline. In general, IC50 refers to the midpoint of a concentration-inhibition curve. In data set [1], `CC1(C)C(=O)Nc2nc(-c3nn(Cc4ncccc4F)c4ncc(F)cc34)nnc21` [Example 2, 3-{5-Fluoro-1-[(3-fluoropyridin-2-yl)methyl]-1H-pyrazolo[3,4-b]pyridin-3-yl}-7,7-dimethyl-5,7-dihydro-6H-pyrrolo[2,3-e][1,2,4]triazin-6-one] showed an AUCnorm of 13 kg·h/L, a CLblood of 2.17 mL/min/kg, a mean residence time MRT of 7.9 h and a half-life of 6.1 h. The molecule also returned an IC50 in data set [2] of 234 nM. Also, the “MEC (minimum effective concentration)” value in data set [3] was determined as 1 µM.
Consider `CC1(C)C(=O)Nc2nc(-c3nn(Cc4ncccc4F)c4ncc(F)cc34)nc(N)c21` [Example 3, 4-Amino-2-{5-fluoro-1-[(3-fluoropyridin-2-yl)methyl]-1H-pyrazolo[3,4-b]pyridin-3-yl}-5,5-dimethyl-5,7-dihydro-6H-pyrrolo[2,3-d]pyrimidin-6-one], for which, in data set [1], the AUCnorm stood at 0.93 kg·h/L, the CLblood came to 15.5 mL/min/kg, the mean residence time MRT was 1.3 h and the half-life is 1 h. The same molecule gave a 50% inhibitory concentration (IC50) in data set [2] of 34 nM. Further, the “MEC (minimum effective concentration)” value in data set [3] was 0.3 µM.
For `CC1(C)C(=O)Nc2nc(-c3nn(Cc4ncccc4F)c4ncc(F)cc34)ncc21` [Example 6, 2-{5-Fluoro-1-[(3-fluoropyridin-2-yl)methyl]-1H-pyrazolo[3,4-b]pyridin-3-yl}-5,5-dimethyl-5,7-dihydro-6H-pyrrolo[2,3-d]pyrimidin-6-one], in data set [1], the AUCnorm turned out to be 3.5 kg·h/L, the CLblood worked out at 6.17 mL/min/kg, the mean residence time MRT stood at 5.6 h and the half-life is 4.4 h. In data set [2], this molecule displayed an IC50 of 82 nM. For the same molecule, the “MEC (minimum effective concentration)” value in data set [3] came out at 0.03 µM.
